From patent publication US20230143604A1, “QW DOSING OF GIP RECEPTOR AGONIST PEPTIDE COMPOUNDS AND USES THEREOF” (TAKEDA PHARMACEUTICAL COMPANY LIMITED, priority 2020, published 2023)
Starred links: 1 amine or outer side, 2 acyl side, 3 side chain; linkers in the order of their positions; H or OH if unused. Non-standard residues stand in square brackets, D forms with d. Residues, ends and D or L forms follow the SMILES beside them. Groups on a side chain read outwards from the residue. No end group written: not given here. *: point of attachment. C18 diacid = O=C(O)CCCCCCCCCCCCCCCCC(=O)*; γGlu = O=C(O)[C@H](CCC(=O)[*:2])N[*:1]; NMeY = CN[C@@H](Cc1ccc(O)cc1)C(=O)O; AEEA = NCCOCCOCC(=O)O; Aib = CC(C)(N)C(=O)O

B1: Compound No. 216 (peptide)
peptide: [NMeY][Aib]EGTFISDYSIALDRAAQAK([AEEA-AEEA-γGlu-γGlu-C18 diacid])FVNWLLAQRG-OH
B2: Compound No. 214 (peptide)
peptide: [NMeY][Aib]EGTFISDYSI[Aib]LDRAAQ[Aib]K([AEEA-AEEA-γGlu-γGlu-C18 diacid])FVNWLLAQRG-OH
B3: Compound No. 215 (peptide)
peptide: [NMeY][Aib]EGTFISDYSI[Aib]LDR[Aib]AQAK([AEEA-AEEA-γGlu-γGlu-C18 diacid])FVNWLLAQRG-OH
B4: Compound No. 218 (peptide)
peptide: [NMeY]AEGTFISDYSI[Aib]LDR[Aib]AQ[Aib]K([AEEA-AEEA-γGlu-γGlu-C18 diacid])FVNWLLAQRG-OH
B5: Compound No. 217 (peptide)
peptide: [NMeY][dA]EGTFISDYSI[Aib]LDR[Aib]AQ[Aib]K([AEEA-AEEA-γGlu-γGlu-C18 diacid])FVNWLLAQRG-OH
B6: Compound No. 219 (peptide)
peptide: [NMeY][Aib]EGTFISDYSI[Aib]LDR[Aib]AQ[Aib]K([AEEA-AEEA-C18 diacid])FVNWLLAQRG-OH

Tests used:
[1] = target: T1, human GLP-1R (Homo sapiens, UniProt P43220); test: Human GLP1R agonist activity, intracellular cAMP accumulation; format: cell-based; settings: HEK-293T cells overexpressing human GLP-1R, 1 hr, read-out: Human GLP1R cAMP EC50, HEK293T
T1 construct: HEK-293T cells overexpressing full-length human GLP-1R; FLAG (N); host or cells: HEK-293T
Protocol: Cells are cultured per the manufacturer's protocol in DMEM with 10% fetal bovine serum and 1 μg/mL puromycin and stored in frozen aliquots to be used as assay ready cells. On the day of the assay, cells are removed from frozen storage, washed two times in 1× Kreb's Ringer Buffer (Zenbio, Research Triangle Park, N.C.), and re-suspended to a concentration of 4×10^5 cells/mL in 1× Kreb's Ringer Buffer. […] Cells are incubated with test compound for 1 hr at room temperature in the dark, and cAMP accumulation is measured using the Cisbio HiRange cAMP assay kit (Bedford, Mass.) per the manufacturer's protocol. Anti-cAMP antibody and d2-cAMP tracer reagents diluted in lysis/detection buffer are incubated in the dark for 1 hr, and results are measured on an Envision plate reader (Perkin Elmer, Waltham, Mass.). Data is normalized using 1 nm GLP-1 as 100% activity, and DMSO alone as 0% activity.

[2] = physchem
In short: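 3 mg of peptide treated with 100 μL portions of 200 mM phosphate buffer pH 7.4, sonicating/vortexing up to 1 min, with further buffer added until fully dissolved. Solubility then quantified by HPLC.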

[3] = target: full-length human GLP-1R with an N-terminal FLAG tag, overexpressed on HEK-293T cells (human, UniProt P43220 24-463); test: cell-based or functional assay
[4] = target: T2, full-length human GIPR with an N-terminal FLAG tag, overexpressed on HEK-293T cells (human, UniProt P48546 22-466); test: cell-based or functional assay
T2 sequence (looked up): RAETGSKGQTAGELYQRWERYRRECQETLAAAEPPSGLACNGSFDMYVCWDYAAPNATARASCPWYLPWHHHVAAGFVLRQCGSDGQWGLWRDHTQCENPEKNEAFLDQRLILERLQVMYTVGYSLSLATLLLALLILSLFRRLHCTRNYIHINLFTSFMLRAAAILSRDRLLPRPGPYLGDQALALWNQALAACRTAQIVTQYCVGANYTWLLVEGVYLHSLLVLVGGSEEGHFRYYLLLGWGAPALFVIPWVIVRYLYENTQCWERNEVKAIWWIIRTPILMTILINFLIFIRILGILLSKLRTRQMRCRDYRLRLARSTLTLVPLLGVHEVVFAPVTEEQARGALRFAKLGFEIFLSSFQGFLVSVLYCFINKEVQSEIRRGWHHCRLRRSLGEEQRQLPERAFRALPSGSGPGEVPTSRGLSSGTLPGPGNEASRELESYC

T1 sequence (P43220 24-463): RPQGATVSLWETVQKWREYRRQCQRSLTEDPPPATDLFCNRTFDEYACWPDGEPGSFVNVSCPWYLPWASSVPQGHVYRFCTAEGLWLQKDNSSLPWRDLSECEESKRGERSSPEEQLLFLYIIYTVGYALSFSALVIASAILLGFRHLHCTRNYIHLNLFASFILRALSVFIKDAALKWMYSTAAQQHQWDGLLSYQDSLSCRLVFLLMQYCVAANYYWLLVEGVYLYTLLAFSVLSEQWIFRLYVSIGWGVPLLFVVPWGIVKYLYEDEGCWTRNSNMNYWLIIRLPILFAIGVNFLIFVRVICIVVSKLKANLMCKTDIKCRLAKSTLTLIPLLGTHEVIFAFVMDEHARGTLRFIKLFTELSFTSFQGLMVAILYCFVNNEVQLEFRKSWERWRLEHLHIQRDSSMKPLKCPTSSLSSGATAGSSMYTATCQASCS

Molecule | EC50 [1] | solubility ([2]; pH 7.4) | solubility ([2]; pH 7.4, aqueous buffer) | Human GLP1R cAMP EC50, HEK293T [3] | Human GIPR cAMP EC50, HEK293T [4]
CC[C@H](C)[C@H](NC(=O)[C@H](CO)NC(=O)[C@H](Cc1ccc(O)cc1)NC(=O)[C@H](CC(=O)O)NC(=O)[C@H](CO)NC(=O)[C@@H](NC(=O)[C@H](Cc1ccccc1)NC(=O)[C@@H](NC(=O)CNC(=O)[C@H](CCC(=O)O)NC(=O)C(C)(C)NC(=O)[C@H](Cc1ccc(O)cc1)NC)[C@@H](C)O)[C@@H](C)CC)C(=O)N[C@@H](C)C(=O)N[C@@H](CCCCNC(=O)CNC(=O)CNC(=O)CNC(=O)CNC(=O)CNC(=O)CCCCCCCCCCCCCCCCC(=O)O)C(=O)N[C@@H](CC(=O)O)C(=O)N[C@@H](CO)C(=O)NC(C)(C)C(=O)N[C@@H](C)C(=O)N[C@@H](CCC(N)=O)C(=O)NC(C)(C)C(=O)N[C@@H](CC(=O)O)C(=O)N[C@@H](Cc1ccccc1)C(=O)N[C@H](C(=O)N[C@@H](CC(N)=O)C(=O)N[C@@H](Cc1c[nH]c2ccccc12)C(=O)N[C@@H](CC(C)C)C(=O)N[C@@H](CC(C)C)C(=O)N[C@@H](C)C(=O)N[C@@H](CCC(N)=O)C(=O)N[C@@H](CO)C(=O)NCC(=O)O)C(C)C [Compound 60] | 100 nM | ≥ 15 mg/mL | ≥ 30 mg/mL | – | –
CC[C@H](C)[C@H](NC(=O)[C@H](CO)NC(=O)[C@H](Cc1ccc(O)cc1)NC(=O)[C@H](CC(=O)O)NC(=O)[C@H](CO)NC(=O)[C@@H](NC(=O)[C@H](Cc1ccccc1)NC(=O)[C@@H](NC(=O)CNC(=O)[C@H](CCC(=O)O)NC(=O)C(C)(C)NC(=O)[C@H](Cc1ccc(O)cc1)NC)[C@@H](C)O)[C@@H](C)CC)C(=O)N[C@@H](C)C(=O)N[C@@H](CCCCNC(=O)CNC(=O)CNC(=O)CNC(=O)CNC(=O)CNC(=O)CCCCCCCCCCCCCCCCC(=O)O)C(=O)N[C@@H](CC(=O)O)C(=O)N[C@@H](CO)C(=O)NC(C)(C)C(=O)N[C@@H](C)C(=O)N[C@@H](CCC(N)=O)C(=O)NC(C)(C)C(=O)N[C@@H](CC(=O)O)C(=O)N[C@@H](Cc1ccccc1)C(=O)N[C@H](C(=O)N[C@@H](CC(N)=O)C(=O)N[C@@H](Cc1c[nH]c2ccccc12)C(=O)N[C@@H](CC(C)C)C(=O)N[C@@H](CC(C)C)C(=O)N[C@@H](C)C(=O)N[C@@H](CCC(N)=O)C(=O)N[C@@H](CCCCN)C(=O)NCC(=O)O)C(C)C [Compound 75] | 550 nM | ≥ 15 mg/mL | ≥ 30 mg/mL | – | –
CC[C@H](C)[C@H](NC(=O)[C@H](CO)NC(=O)[C@H](Cc1ccc(O)cc1)NC(=O)[C@H](CC(=O)O)NC(=O)[C@H](CO)NC(=O)[C@@H](NC(=O)[C@H](Cc1ccccc1)NC(=O)[C@@H](NC(=O)CNC(=O)[C@H](CCC(=O)O)NC(=O)C(C)(C)NC(=O)[C@H](Cc1ccc(O)cc1)NC)[C@@H](C)O)[C@@H](C)CC)C(=O)N[C@@H](C)C(=O)N[C@@H](CCCCNC(=O)CNC(=O)CNC(=O)CNC(=O)CNC(=O)CNC(=O)CCCCCCCCCCCCCCCCC(=O)O)C(=O)N[C@@H](CC(=O)O)C(=O)N[C@@H](CCCCN)C(=O)NC(C)(C)C(=O)N[C@@H](C)C(=O)N[C@@H](CCC(N)=O)C(=O)NC(C)(C)C(=O)N[C@@H](CC(=O)O)C(=O)N[C@@H](Cc1ccccc1)C(=O)N[C@H](C(=O)N[C@@H](CC(N)=O)C(=O)N[C@@H](Cc1c[nH]c2ccccc12)C(=O)N[C@@H](CC(C)C)C(=O)N[C@@H](CC(C)C)C(=O)N[C@@H](C)C(=O)N[C@@H](CCC(N)=O)C(=O)N[C@@H](CCCCN)C(=O)NCC(=O)O)C(C)C [Compound 76] | 28.8 nM | ≥ 15 mg/mL | ≥ 30 mg/mL | – | –
CC[C@H](C)[C@H](NC(=O)[C@H](Cc1ccccc1)NC(=O)[C@@H](NC(=O)CNC(=O)[C@H](CCC(=O)O)NC(=O)C(C)(C)NC(=O)[C@H](Cc1ccc(O)cc1)NC)[C@@H](C)O)C(=O)N[C@@H](CO)C(=O)N[C@@H](CC(=O)O)C(=O)N[C@@H](Cc1ccc(O)cc1)C(=O)N[C@@H](CO)C(=O)N[C@H](C(=O)NC(C)(C)C(=O)N[C@@H](CC(C)C)C(=O)N[C@@H](CC(=O)O)C(=O)N[C@@H](CO)C(=O)N[C@@H](CCCCNC(=O)CNC(=O)CNC(=O)CNC(=O)CNC(=O)CNC(=O)CCCCCCCCCCCCCCCCC(=O)O)C(=O)N[C@@H](C)C(=O)N[C@@H](CCC(N)=O)C(=O)NC(C)(C)C(=O)N[C@@H](CC(=O)O)C(=O)N[C@@H](Cc1ccccc1)C(=O)N[C@H](C(=O)N[C@@H](CC(N)=O)C(=O)N[C@@H](Cc1c[nH]c2ccccc12)C(=O)N[C@@H](CC(C)C)C(=O)N[C@@H](CC(C)C)C(=O)N[C@@H](C)C(=O)N[C@@H](CCC(N)=O)C(=O)N[C@@H](CCCCN)C(=O)NCC(=O)O)C(C)C)[C@@H](C)CC [Compound 77] | 17 nM | ≥ 15 mg/mL | ≥ 30 mg/mL | – | –
CC[C@H](C)[C@H](NC(=O)[C@H](Cc1ccccc1)NC(=O)[C@@H](NC(=O)CNC(=O)[C@H](CCC(=O)O)NC(=O)C(C)(C)NC(=O)[C@H](Cc1ccc(O)cc1)NC)[C@@H](C)O)C(=O)N[C@@H](CO)C(=O)N[C@@H](CC(=O)O)C(=O)N[C@@H](Cc1ccc(O)cc1)C(=O)N[C@@H](CO)C(=O)N[C@H](C(=O)NC(C)(C)C(=O)N[C@@H](CC(C)C)C(=O)N[C@@H](CC(=O)O)C(=O)N[C@@H](CCCNC(=N)N)C(=O)NC(C)(C)C(=O)N[C@@H](C)C(=O)N[C@@H](CCC(N)=O)C(=O)NC(C)(C)C(=O)N[C@@H](CCCCNC(=O)COCCOCCNC(=O)COCCOCCNC(=O)CCCCCCCCCCCCCCCCC(=O)O)C(=O)N[C@@H](Cc1ccccc1)C(=O)N[C@H](C(=O)N[C@@H](CC(N)=O)C(=O)N[C@@H](Cc1c[nH]c2ccccc12)C(=O)N[C@@H](CC(C)C)C(=O)N[C@@H](CC(C)C)C(=O)N[C@@H](C)C(=O)N[C@@H](CCC(N)=O)C(=O)N[C@@H](CCCNC(=N)N)C(=O)NCC(=O)O)C(C)C)[C@@H](C)CC [Compound 219] (H-[NMeY][Aib]EGTFISDYSI[Aib]LDR[Aib]AQ[Aib]K([AEEA-AEEA-C18 diacid])FVNWLLAQRG-OH) | 17.4 nM | – | – | – | –
B1 | – | – | – | 79.4 nM | 0.0005 nM
B2 | – | – | – | 28.8 nM | 0.0014 nM
B3 | – | – | – | 61.7 nM | 0.0005 nM
B4 | – | – | – | 38 nM | 0.0005 nM
B5 | – | – | – | 135 nM | 0.0006 nM
B6 | – | – | – | 17.4 nM | 0.0008 nM
